# Laboratory results from patent US12459922B2 (Gilead Sciences, Inc., priority 2022, dated 2025).
# Tested on: endogenous cellular STAT1 (phosphorylated at Tyr701) in NCI-H1373 cells
# Test: Phospho-STAT1 (Tyr701) LANCE Ultra TR-FRET Detection Assay
# Format: cell-based
# Conditions: Homo sapiens, NCI-H1373, 48 h, phospho-STAT1 (Tyr701) induction, read-out: NH1373 pSTAT1 EC50
row,EC50,SMILES
1,218 nM,"CC[C@@H](CCCn1cnc2cc(-c3ccc(C(F)F)cn3)c(F)cc2c1=O)Nc1cn[nH]c(=O)c1C(F)(F)F [Example 338, (S)-7-(5-(difluoromethyl)pyridin-2-yl)-6-fluoro-3-(4-((6-oxo-5-(trifluoromethyl)-1,6-dihydropyridazin-4-yl)amino)hexyl)quinazolin-4(3H)-one]"
2,17.4 nM,"CC[C@@H](CCCn1ccc2cc(-c3cnc(C(F)(F)F)c(N)n3)c(F)cc2c1=O)Nc1cn[nH]c(=O)c1C(F)(F)F [Example 339, (S)-6-(6-amino-5-(trifluoromethyl)pyrazin-2-yl)-7-fluoro-2-(4-((6-oxo-5-(trifluoromethyl)-1,6-dihydropyridazin-4-yl)amino)hexyl)isoquinolin-1(2H)-one]"
3,97.1 nM,"CC[C@@H](CCCn1cnc2cc(-c3ccc(OC(F)F)cn3)c(F)cc2c1=O)Nc1cn[nH]c(=O)c1C(F)(F)F [Example 340, (S)-7-(5-(difluoromethoxy)pyridin-2-yl)-6-fluoro-3-(4-((6-oxo-5-(trifluoromethyl)-1,6-dihydropyridazin-4-yl)amino)hexyl)quinazolin-4(3H)-one]"
4,1.95 nM,"C[C@@H](CCCn1ccc2cc(-c3ncc(Cl)c(N)n3)c(F)c(F)c2c1=O)Nc1cn[nH]c(=O)c1C(F)(F)F [Example 341, (S)-6-(4-amino-5-chloropyrimidin-2-yl)-7,8-difluoro-2-(4-((6-oxo-5-(trifluoromethyl)-1,6-dihydropyridazin-4-yl)amino)pentyl)isoquinolin-1(2H)-one]"
5,9.84 nM,"CC[C@@H](CCCn1cnc2cc(-c3ncc(Cl)c(N)n3)c(F)cc2c1=O)Nc1cn[nH]c(=O)c1C(F)(F)F [Example 342, (S)-7-(4-amino-5-chloropyrimidin-2-yl)-6-fluoro-3-(4-((6-oxo-5-(trifluoromethyl)-1,6-dihydropyridazin-4-yl)amino)hexyl)quinazolin-4(3H)-one]"
6,3.56 nM,"CC[C@@H](CCCn1ccc2cc(-c3ncc(OC)c(N)n3)c(F)cc2c1=O)Nc1cn[nH]c(=O)c1C(F)(F)F [Example 343, (S)-6-(4-amino-5-methoxypyrimidin-2-yl)-7-fluoro-2-(4-((6-oxo-5-(trifluoromethyl)-1,6-dihydropyridazin-4-yl)amino)hexyl)isoquinolin-1(2H)-one]"
7,28.2 nM,"C[C@@H](CCCn1ccc2cc(-c3ncc(C4(F)COC4)c(N)n3)c(F)cc2c1=O)Nc1cn[nH]c(=O)c1C(F)(F)F [Example 344, (S)-6-(4-amino-5-(3-fluorooxetan-3-yl)pyrimidin-2-yl)-7-fluoro-2-(4-((6-oxo-5-(trifluoromethyl)-1,6-dihydropyridazin-4-yl)amino)pentyl)isoquinolin-1(2H)-one]"
8,6.71 nM,"CC[C@@H](CCCn1ccc2cc(-c3ncc(C(F)F)cn3)c(F)cc2c1=O)Nc1cn[nH]c(=O)c1C(F)(F)F [Example 345, (S)-6-(5-(difluoromethyl)pyrimidin-2-yl)-7-fluoro-2-(4-((6-oxo-5-(trifluoromethyl)-1,6-dihydropyridazin-4-yl)amino)hexyl)isoquinolin-1(2H)-one]"
9,187 nM,"CC[C@@H](CCCn1cnc2cc(-c3cnc(C(F)F)cn3)c(F)cc2c1=O)Nc1cn[nH]c(=O)c1C(F)(F)F [Example 346, (S)-7-(5-(difluoromethyl)pyrazin-2-yl)-6-fluoro-3-(4-((6-oxo-5-(trifluoromethyl)-1,6-dihydropyridazin-4-yl)amino)hexyl)quinazolin-4(3H)-one]"
10,93.4 nM,"CC[C@@H](CCCn1cnc2cc(-c3cnc(C(F)(F)F)c(N)n3)c(F)cc2c1=O)Nc1cn[nH]c(=O)c1C(F)(F)F [Example 347, (S)-7-(6-amino-5-(trifluoromethyl)pyrazin-2-yl)-6-fluoro-3-(4-((6-oxo-5-(trifluoromethyl)-1,6-dihydropyridazin-4-yl)amino)hexyl)quinazolin-4(3H)-one]"
11,6.47 nM,"CC[C@@H](CCCn1ccc2cc(-c3ncc(C(F)(F)F)c(N)n3)c(F)c(F)c2c1=O)Nc1cn[nH]c(=O)c1C(F)(F)F [Example 348, (S)-6-(4-amino-5-(trifluoromethyl)pyrimidin-2-yl)-7,8-difluoro-2-(4-((6-oxo-5-(trifluoromethyl)-1,6-dihydropyridazin-4-yl)amino)hexyl)isoquinolin-1(2H)-one]"
12,11.8 nM,"C[C@@H](CCCn1ccc2cc(-c3cnc(C(F)(F)F)c(N)n3)c(F)c(F)c2c1=O)Nc1cn[nH]c(=O)c1C(F)(F)F [Example 349, (S)-6-(6-amino-5-(trifluoromethyl)pyrazin-2-yl)-7,8-difluoro-2-(4-((6-oxo-5-(trifluoromethyl)-1,6-dihydropyridazin-4-yl)amino)pentyl)isoquinolin-1(2H)-one]"
13,15.1 nM,"CC[C@@H](CCCn1ccc2cc(-c3ncc(OC)c(N)n3)c(F)c(F)c2c1=O)Nc1cn[nH]c(=O)c1C(F)(F)F [Example 350, (S)-6-(4-amino-5-methoxypyrimidin-2-yl)-7,8-difluoro-2-(4-((6-oxo-5-(trifluoromethyl)-1,6-dihydropyridazin-4-yl)amino)hexyl)isoquinolin-1(2H)-one]"
14,8.39 nM,"C[C@@H](CCCn1ccc2cc(-c3cnc(Cl)c(N)n3)c(F)cc2c1=O)Nc1cn[nH]c(=O)c1C(F)(F)F [Example 351, (S)-6-(6-amino-5-chloropyrazin-2-yl)-7-fluoro-2-(4-((6-oxo-5-(trifluoromethyl)-1,6-dihydropyridazin-4-yl)amino)pentyl)isoquinolin-1(2H)-one]"
15,64.4 nM,"C[C@@H](CCCn1cnc2cc(-c3cnc(Cl)c(N)n3)c(F)cc2c1=O)Nc1cn[nH]c(=O)c1C(F)(F)F [Example 352, (S)-7-(6-amino-5-chloropyrazin-2-yl)-6-fluoro-3-(4-((6-oxo-5-(trifluoromethyl)-1,6-dihydropyridazin-4-yl)amino)pentyl)quinazolin-4(3H)-one]"
16,16.1 nM,"CC[C@@H](CCCn1ccc2cc(-c3ncc(C(F)(F)F)cn3)c(F)c(F)c2c1=O)Nc1cn[nH]c(=O)c1C(F)(F)F [Example 353, (S)-7,8-difluoro-2-(4-((6-oxo-5-(trifluoromethyl)-1,6-dihydropyridazin-4-yl)amino)hexyl)-6-(5-(trifluoromethyl)pyrimidin-2-yl)isoquinolin-1(2H)-one]"
17,65.1 nM,"C[C@@H](CCCn1cnc2cc(-c3nc(N)c4ccccc4n3)c(F)cc2c1=O)Nc1cn[nH]c(=O)c1C(F)(F)F [Example 354, (S)-4-amino-6'-fluoro-3'-(4-((6-oxo-5-(trifluoromethyl)-1,6-dihydropyridazin-4-yl)amino)pentyl)-[2,7'-biquinazolin]-4'(3'H)-one]"
18,11.4 nM,"CC[C@@H](CCCn1ccc2cc(-c3ncc(C(F)F)cn3)c(F)c(F)c2c1=O)Nc1cn[nH]c(=O)c1C(F)(F)F [Example 355, (S)-6-(5-(difluoromethyl)pyrimidin-2-yl)-7,8-difluoro-2-(4-((6-oxo-5-(trifluoromethyl)-1,6-dihydropyridazin-4-yl)amino)hexyl)isoquinolin-1(2H)-one]"
19,4.9 nM,"CC[C@@H](CCCn1ccc2cc(-c3ncc(C(F)F)c(N)n3)c(F)c(F)c2c1=O)Nc1cn[nH]c(=O)c1C(F)(F)F [Example 356, (S)-6-(4-amino-5-(difluoromethyl)pyrimidin-2-yl)-7,8-difluoro-2-(4-((6-oxo-5-(trifluoromethyl)-1,6-dihydropyridazin-4-yl)amino)hexyl)isoquinolin-1(2H)-one]"
20,143 nM,"C[C@@H](CCCn1ccc2cc(-c3nc(N)c4c(n3)COC4)c(F)cc2c1=O)Nc1cn[nH]c(=O)c1C(F)(F)F [Example 357, (S)-6-(4-amino-5,7-dihydrofuro[3,4-d]pyrimidin-2-yl)-7-fluoro-2-(4-((6-oxo-5-(trifluoromethyl)-1,6-dihydropyridazin-4-yl)amino)pentyl)isoquinolin-1(2H)-one]"
21,1330 nM,"C[C@@H](CCCn1ccc2cc(-c3nc(N)c4c(n3)C(C)(C)OC4)c(F)cc2c1=O)Nc1cn[nH]c(=O)c1C(F)(F)F [Example 358, (S)-6-(4-amino-7,7-dimethyl-5,7-dihydrofuro[3,4-d]pyrimidin-2-yl)-7-fluoro-2-(4-((6-oxo-5-(trifluoromethyl)-1,6-dihydropyridazin-4-yl)amino)pentyl)isoquinolin-1(2H)-one]"
22,1.15 nM,"CC[C@@H](CCCn1ccc2cc(-c3ncc(Cl)c(N)n3)c(F)c(F)c2c1=O)Nc1cn[nH]c(=O)c1C(F)(F)F [Example 359, (S)-6-(4-amino-5-chloropyrimidin-2-yl)-7,8-difluoro-2-(4-((6-oxo-5-(trifluoromethyl)-1,6-dihydropyridazin-4-yl)amino)hexyl)isoquinolin-1(2H)-one]"
23,12.7 nM,"CC[C@@H](CCCn1ccc2cc(-c3ncc(OC(F)F)c(N)n3)c(F)cc2c1=O)Nc1cn[nH]c(=O)c1C(F)(F)F [Example 360, (S)-6-(4-amino-5-(difluoromethoxy)pyrimidin-2-yl)-7-fluoro-2-(4-((6-oxo-5-(trifluoromethyl)-1,6-dihydropyridazin-4-yl)amino)hexyl)isoquinolin-1(2H)-one]"
24,10.9 nM,"CC[C@@H](CCCn1ccc2cc(-c3ncc(OC(F)F)c(N)n3)c(F)c(F)c2c1=O)Nc1cn[nH]c(=O)c1C(F)(F)F [Example 361, (S)-6-(4-amino-5-(difluoromethoxy)pyrimidin-2-yl)-7,8-difluoro-2-(4-((6-oxo-5-(trifluoromethyl)-1,6-dihydropyridazin-4-yl)amino)hexyl)isoquinolin-1(2H)-one]"
25,15.7 nM,"CC[C@@H](CCCn1ccc2cc(-c3cnc(C(F)(F)F)c(N)n3)c(F)c(F)c2c1=O)Nc1cn[nH]c(=O)c1C(F)(F)F [Example 362, (S)-6-(6-amino-5-(trifluoromethyl)pyrazin-2-yl)-7,8-difluoro-2-(4-((6-oxo-5-(trifluoromethyl)-1,6-dihydropyridazin-4-yl)amino)hexyl)isoquinolin-1(2H)-one]"
26,3.28 nM,"C[C@@H](CCCn1ccc2cc(-c3nc(N)c4ccccc4n3)c(F)cc2c1=O)Nc1cn[nH]c(=O)c1C(F)(F)F [Example 363, (S)-6-(4-aminoquinazolin-2-yl)-7-fluoro-2-(4-((6-oxo-5-(trifluoromethyl)-1,6-dihydropyridazin-4-yl)amino)pentyl)isoquinolin-1(2H)-one]"
